Consider 19 compounds from ChEMBL document CHEMBL4732147, “A novel [5.2.1]bicyclic amine is a potent analgesic without µ opioid activity” (Bioorg Med Chem Lett, 2021).

By ED50 is commonly meant the dose that gives a 50% effect, or the effect in half of the subjects. The EC50 is the concentration giving half of the maximal effect. One may read the logD as lipophilicity at a set pH, counting ionised and neutral species. Read a high logD as higher lipophilicity. The term half-life denotes the time needed for the level to fall by half in the phase considered. High values mean slow decline, low ones rapid decline. As usually defined, the clearance is the rate of elimination divided by the concentration. As a reminder, the CL/F is the apparent clearance, not corrected for the fraction that reaches the circulation. What is called bioavailability is the share of a dose that reaches the circulation, judged against a reference dose that is usually intravenous. The low end stands for little systemic uptake, the high end for much systemic uptake. One may read the Ki as the dissociation constant of the complex between target and ligand, obtained from inhibition or displacement. A high value points to a looser hold on the target.

The source made the active and inactive calls.

Data set [1] concerns Mus musculus. Kind of data set: Analgesic activity in sc dosed ddY mouse assessed as protection against acetic acid-induced writhing. Format: functional. Background: An intraperitoneal irritant provokes the stretching counted in writhing tests.
The subject of data set [2] is Mus musculus. Kind of data set: Analgesic activity in ddY mouse assessed as protection against acetic acid-induced writhing at 30 mg/kg, sc relative to control. The format is functional.
The target in data set [3] is T1, Mu-type opioid receptor (Homo sapiens, UniProt P35372). Kind of data set: Agonist activity at human Gi/G0-coupled mu opioid receptor expressed in human U2OS cells co-expressing EA-tagged beta-arrestin2 assessed as beta-arrestin 2 recruitment by PathHunter assay. The format is cell-based.
T1 sequence (P35372 whole entry): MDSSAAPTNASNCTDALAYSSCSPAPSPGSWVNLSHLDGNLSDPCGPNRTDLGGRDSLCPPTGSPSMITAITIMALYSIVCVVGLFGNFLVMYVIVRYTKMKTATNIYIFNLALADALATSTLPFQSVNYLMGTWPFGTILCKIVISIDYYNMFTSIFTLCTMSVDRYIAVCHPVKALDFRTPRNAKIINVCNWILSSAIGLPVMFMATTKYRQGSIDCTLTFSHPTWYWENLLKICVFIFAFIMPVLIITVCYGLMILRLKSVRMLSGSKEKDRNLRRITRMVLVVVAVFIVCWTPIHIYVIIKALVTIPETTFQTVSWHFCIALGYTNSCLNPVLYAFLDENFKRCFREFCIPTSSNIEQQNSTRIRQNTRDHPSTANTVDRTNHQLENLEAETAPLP
Data set [4] can be described thus: Plasma concentration in ddY mouse at 30 mg/kg, sc. Also: time not given here. The format is ADME, organism-based. Particulars: in vivo.
Data set [5] can be described thus: Drug concentration in ddY mouse brain at 30 mg/kg, sc. Also: time not given here. Format: ADME, organism-based. Particulars: in vivo, read-out: Ct.
For data set [6], the system named is Mus musculus. Kind of data set: Analgesic activity in sc dosed ddY mouse assessed as tail flicking. Format: functional.
Data set [7] relates to Mus musculus. Kind of data set: Analgesic activity in ddY mouse assessed as tail flicking at 30 mg/kg, sc relative to control. The format is functional.
The nature of data set [8]: Toxicity in sc dosed ddY mouse assessed as effect on locomotor activity. Format: organism-based. Particulars: in vivo.
The subject of data set [9] is Mus musculus. Kind of data set: Analgesic activity in ddY mouse assessed as tail flicking at 300 mg/kg, sc. The format is functional, organism-based.
Data set [10] can be described thus: Toxicity in ddY mouse assessed as hyperactivity at 10 mg/kg, sc. Format: organism-based. Particulars: in vivo.
The nature of data set [11]: Drug concentration in ddY mouse brain at 10 mg/kg. Also: time not given here. The format is ADME, organism-based. Particulars: in vivo, read-out: Ct.
Data set [12] deals with Mus musculus. Kind of data set: Analgesic activity in ddY mouse assessed as protection against acetic acid-induced writhing at 3 mg/kg, sc relative to control. Format: functional.
The next data set has as its system Cytochrome P450. Kind of data set: Metabolic stability in human cytochrome P450 assessed as parent compound remaining. Also: time not given here. The format is ADME, protein assay.
Data set [13] can be described thus: Metabolic stability in mouse cytochrome P450 assessed as parent compound remaining. Also: time not given here. The format is ADME.
Data set [14] in a line: Lipophilicity, log D of compound. Format: physicochemical. Particulars: octanol/water.
Data set [15] in a line: Permeability of compound by PAMPA. The format is ADME. (PAMPA measures passive passage across an artificial lipid membrane.)
Data set [16] is described as follows: Protein binding in mouse. Particulars: in vivo, read-out: PB (converted). The format is ADME, organism-based.
Data set [17] is described as follows: Half life in mouse at 10 mg/kg. Format: ADME, organism-based. Conditions: in vivo.
A short description of data set [18]: Clearance in mouse at 10 mg/kg. Format: ADME, organism-based. Conditions: in vivo.
Data set [19] is described as follows: Apparent clearance in mouse at 10 mg/kg. The format is ADME, organism-based. Conditions: in vivo.
The nature of data set [20]: Oral bioavailability in mouse at 10 mg/kg. Format: ADME, organism-based. Particulars: in vivo.
The target of data set [21] is T1, Mu-type opioid receptor. Kind of data set: Binding affinity to mu opioid receptor (unknown origin).

Take `COc1cccc2c1CN(C)[C@@]1(c3ccccc3)CCN(C2)C1`: the ED50 in the data set on Mus musculus [1] is greater than 30 mg/kg. Besides, the Activity with Mus musculus [2] came out at 9.2%. Further, the EC50 at Mu-type opioid receptor [3] is greater than 20 µM. Also, the concentration in [4] turned out to be 13.4 µM; in data set [5], 6.2 µM.

`CN1Cc2cccc(O)c2CN2CC[C@@]1(c1ccccc1)C2`: the ED50 with Mus musculus [1] is less than 30 mg/kg; in the data set with Mus musculus [6] it was greater than 30 mg/kg. In addition, the Activity in the data set on Mus musculus [2] stood at 93%. Moreover, the EC50 at Mu-type opioid receptor [3] is greater than 20 µM. Moreover, the concentration came out at 0.77 µM in [4] and 13 µM in data set [5]. For the same compound, in the data set on Mus musculus [7], the MPE was 6%.

On to `c1ccc([C@@]23CCN(Cc4ccccc4CN2)C3)cc1`, for which the ED50 in the data set on Mus musculus [1] was less than 30 mg/kg; in the data set with Mus musculus [6] it was greater than 30 mg/kg. The Activity in the data set on Mus musculus [2] is 72%. In addition, the EC50 at Mu-type opioid receptor [3] is greater than 20 µM. Besides, the concentration stood at 2.2 µM in data set [4] and 49.2 µM in [5]. Also, in the data set with Mus musculus [7], the MPE is on record as 19%.

In the case of `CN(C)C(=O)CN1Cc2ccccc2CN2CC[C@@]1(c1ccccc1)C2`, the ED50 in the data set with Mus musculus [1] is greater than 30 mg/kg. In the data set with Mus musculus [2], the Activity is listed as 52%. The EC50 on Mu-type opioid receptor [3] was greater than 20 µM. Besides, the concentration in data set [4] amounted to 4 µM; in data set [5] it was 5.3 µM.

As to `COc1ccc2c(c1)CN1CC[C@@](c3ccccc3)(C1)N(C)C2`, the ED50 with Mus musculus [1] is less than 30 mg/kg; with Mus musculus [6], greater than 30 mg/kg. For the same compound, in the data set with Mus musculus [2], the Activity was determined as 59%. The EC50 on Mu-type opioid receptor [3] is greater than 20 µM. In addition, the concentration came out at 2.2 µM in data set [4] and 24.8 µM in data set [5]. The MPE in the data set with Mus musculus [7] worked out at 36%.

Consider `OCCN1Cc2ccccc2CN2CC[C@@]1(c1ccccc1)C2`, for which the ED50 was 18.2 mg/kg with Mus musculus [1] and greater than 30 mg/kg in the data set with Mus musculus [6]. The concentration giving a half-maximal response (EC50) at Mu-type opioid receptor [3] is greater than 20 µM. Also, the values for the concentration in data set [4] and in data set [5] were 2.7 µM and 21.8 µM, respectively. Besides, the ID50 in data set [8] was 37 mg/kg. In addition, the MPE with Mus musculus [7] is recorded as 18%.

As for `O=C1N[C@@]2(c3ccccc3)CCN(Cc3ccccc31)C2`, the ED50 in the data set with Mus musculus [1] is greater than 30 mg/kg. Besides, the Activity with Mus musculus [2] is listed as 23%. The concentration in data set [4] worked out at 4.4 µM; in data set [5] it was 11.2 µM. The result with Mus musculus [9] was inactive.

Regarding `O=C1N[C@]2(c3ccccc3)CCN(Cc3ccccc31)C2`, the ED50 with Mus musculus [1] is less than 30 mg/kg. In addition, the Activity in the data set on Mus musculus [2] is 23%. The figures for the concentration in data set [4] and in [5] were 3.5 µM and 7.7 µM, respectively.

Turning to `CN1Cc2ccc(O)cc2CN2CC[C@@]1(c1ccccc1)C2`, the Activity in the data set on Mus musculus [2] came to 100%. Also, the EC50 on Mu-type opioid receptor [3] was 2.4 µM. Moreover, the concentration in [4] was 1.5 µM; in [5] it was 19.4 µM.

Consider `CN1Cc2cc(O)ccc2CN2CC[C@@]1(c1ccccc1)C2`, for which the ED50 came out at 4.6 mg/kg in the data set with Mus musculus [1] and 6.2 mg/kg in the data set with Mus musculus [6]. For the same compound, the EC50 on Mu-type opioid receptor [3] was greater than 20 µM. Besides, the concentration in data set [4] amounted to 0.74 µM; in [5], 8.33 µM. For the same compound, the ID50 in [8] was 5.2 mg/kg.

Take `CC(=O)N1Cc2ccccc2CN2CC[C@@]1(c1ccccc1)C2`: the ED50 with Mus musculus [1] is 31 mg/kg; with Mus musculus [6] it was greater than 30 mg/kg. Besides, on Mu-type opioid receptor [3], the EC50 was greater than 20 µM. Further, the concentration in data set [4] was 7.8 µM; in data set [5], 6.3 µM. For the same compound, the MPE with Mus musculus [7] amounted to 4.9%.

In the case of `CN1Cc2ccccc2CN2CC[C@]1(c1ccccc1)C2`, the ED50 in the data set with Mus musculus [1] was found to be 1 mg/kg; in the data set with Mus musculus [6], 1.7 mg/kg. For the same compound, the half-maximal effective concentration (EC50) on Mu-type opioid receptor [3] came out at 3 µM. In addition, the concentration in data set [4] worked out at 0.75 µM; in data set [11], 15.6 µM. In addition, in [10], the Activity result is given as “Toxic”.

With `CCN1Cc2ccccc2CN2CC[C@@]1(c1ccccc1)C2`, the ED50 was less than 30 mg/kg with Mus musculus [1] and greater than 10 mg/kg with Mus musculus [6]. For the same compound, the Activity in the data set with Mus musculus [2] amounted to 100%. Also, the EC50 on Mu-type opioid receptor [3] came out at 4 µM. The concentration in data set [4] was 1.8 µM; in data set [5], 33.3 µM. Besides, the MPE in the data set with Mus musculus [7] was 43%.

In the case of `COc1cccc2c1CN1CC[C@@](c3ccccc3)(C1)N(C)C2`, the ED50 with Mus musculus [1] is less than 30 mg/kg; with Mus musculus [6] it was 16 mg/kg. Further, the Activity in the data set on Mus musculus [2] is listed as 100%. On Mu-type opioid receptor [3], the EC50 was greater than 20 µM. Moreover, the figures for the concentration in data set [4] and in [5] were 3.1 µM and 31.1 µM, respectively. Moreover, the ID50 in [8] is 19 mg/kg.

Take `CN1Cc2c(O)cccc2CN2CC[C@@]1(c1ccccc1)C2`: the 50% effective dose (ED50) with Mus musculus [1] is less than 30 mg/kg. The Activity in the data set with Mus musculus [2] is 56%. The EC50 at Mu-type opioid receptor [3] was greater than 20 µM. The concentration in data set [4] turned out to be 1.9 µM; in data set [5] it was 18.9 µM.

In the case of `CCCN1Cc2ccccc2CN2CCC1(c1ccccc1)C2` (racemic), the ED50 with Mus musculus [1] was less than 3 mg/kg. The EC50 at Mu-type opioid receptor [3] stood at 0.7 µM. Besides, the Activity in the data set with Mus musculus [12] came out at 100%.

On to `CCC(=O)N1Cc2ccccc2CN2CC[C@@]1(c1ccccc1)C2`, for which, in the data set with Mus musculus [1], the ED50 was no less than 30 mg/kg. Also, in the data set on Mus musculus [2], the Activity turned out to be 87%. For the same compound, at Mu-type opioid receptor [3], the EC50 is greater than 20 µM. For the same compound, the concentration was determined as 5 µM in [4] and 8.4 µM in data set [5].

`COc1ccc2c(c1)CN(C)[C@@]1(c3ccccc3)CCN(C2)C1`: the ED50 in the data set with Mus musculus [1] came to 11 mg/kg; in the data set on Mus musculus [6] it was 18 mg/kg. For the same compound, on Mu-type opioid receptor [3], the EC50 was greater than 20 µM. The concentration in data set [4] was found to be 0.73 µM; in data set [5], 6.9 µM. In data set [8], the ID50 amounted to 14 mg/kg.

Take `CN1Cc2ccccc2CN2CC[C@@]1(c1ccccc1)C2`: the results for the ED50 in the data set with Mus musculus [1] and with Mus musculus [6] were 2 mg/kg and 17 mg/kg, respectively. Moreover, at Mu-type opioid receptor [3], the EC50 is greater than 20 µM. Moreover, the concentration was 0.7 µM in data set [4] and 16.3 µM in [11]. In addition, the ID50 in data set [8] turned out to be 15 mg/kg. In addition, the results for the Stabilty (in the data set with Cytochrome P450; in data set [13]) were 72% and 1%, respectively. In addition, the logD in [14] was found to be 3. Besides, the permeability entry in data set [15] is given as “Permeable”. Moreover, the fraction unbound in data set [16] is 0.16. The compound also gave a half-life in [17] of 1.06 h. Also, in [18], the clearance is 261 mL/min/kg. Also, in [19], the CL/F worked out at 264 mL/min/kg. In data set [20], this compound returned a bioavailability of 55.2%. The compound further came in with a Ki at Mu-type opioid receptor [21] of 1.33 µM.
